Laboratory results reported in patent publication US12522593B2, “Azacycloalkyl carbonyl cyclic amine compound” (Alivexis, Inc., priority 2022, dated 2026).

Tests used:
human recombinant CTSC = human recombinant CTSC (Homo sapiens (Human), UniProt P53634); test: CTSC inhibition assay (in vitro), fluorescent substrate GF-AFC; type: biochemical; conditions: 30 μmol/L GF-AFC, pH 5.0, 25° C.
Protocol: 1. CTSC Inhibition Assay (In Vitro)
A test specimen was evaluated by a CTSC inhibition assay using a fluorescent substrate GF-AFC (Gly-Phe-7-Amino-4-trifluoromethylcoumarin, MP Biomedical, 03AFC03325). Since the GF-AFC is converted by CTSC to aminotrifluoromethylcoumarin having a specific fluorescence wavelength and the produced amount is proportional to CTSC activity, quantitative analysis was performed by measuring a fluorescence intensity with a plate reader. CTSC inhibition assay for each compound was performed using a polystyrene-made non-adhesive surface-treated black 384 well plate under the following conditions.
A human recombinant CTSC (R&D systems, 1071-CY) was dissolved in a CTSC active cocktail (20 ng/mL of human recombinant cathepsin L (R&D systems, 952-CY, 25 mmol/L MES/NaOH (pH: 6.0), 5 mmol/L dithiothreitol (DTT)) so as to be 100 ng/mL and incubated at 18° C. for 30 minutes. The solution was diluted with a CTSC assay buffer (50 mmol/L MES/NaOH (pH: 5.0), 50 mmol/L NaCl, 0.001% Triton X-100, mmol/L DTT) so as to be 2 ng/mL in a case of performing CTSC inhibition assay.
The test specimen was dissolved in dimethylsulfoxide (DMSO) at 10 mmol/L to prepare a stock solution. In a case where a solution in which the stock solution was diluted 15-fold with DMSO was used as the maximum evaluation concentration (0.667 mmol/L), 5-fold dilution was repeated in DMSO from the solution to prepare a serially diluted solution. 248.8 μL of the CTSC assay buffer was added to 1.12 μL of the serially diluted sample prepared in the DMSO to prepare a solution of a CTSC inhibition assay compound.
The final composition of the CTSC inhibition assay mixture was 0.66 ng/mL activated CTSC, 50 mmol/L MES/NaOH (pH: 5.0), 50 mmol/L NaCl, 0.001% Triton X-100, 5 mmol/L DTT, 30 μmol/L GF-AFC, and 0.15% DMSO, and the procedure was as follows. That is, 4 μL of the compound solution and 4 μL of the 2 ng/mL activated CTSC solution were mixed with each other in a 384 well plate and incubated at 25° C. for 30 minutes. Thereafter, 4 μL of the GF-AFC solution dissolved in the CTSC assay buffer was added to the mixture so as to be 90 μmol/L. After mixing to be uniform, a fluorescence emission intensity at 505 nm in a case of being excited at 390 nm after incubating at 25° C. for 1 hour was measured with a plate reader. A 4-parameter regression analysis was performed with GraphPad Prism (manufactured by GraphPad Software) from a plot of the fluorescence intensity at 505 nm and the sample concentration, and an IC50 value was calculated.
Results of test compounds of Formula (I) are shown in Table 1 as IC50 (nM) values for which 50% inhibition concentration is calculated based on CTSC inhibition (%). In the table, Ex indicates an example number.

CTSC in U937 cells = CTSC in U937 cells (Homo sapiens (Human), UniProt P53634); test: Intracellular CTSC inhibition assay (in vitro), LLOMe-induced cell death in U937 cells; type: cell-based; conditions: 3 hours culture, CellTiter-Glo
Protocol: 2. Intracellular CTSC Inhibition Assay (In Vitro)
A test specimen was evaluated by a degree of cell death in a case where a substrate LLOMe (L-Leucyl-L-Leucine methyl ester, hydrobromide salt, Sigma, 555045152) was added to U937 cells. The LLOMe is taken up into the cells by endocytosis and cleaved by CTSC. A product thereof induces lysosomal damage in cells and causes cell death in leukocytes and the like. Therefore, since the degree of cell death correlates with an amount of degradation of LLOMe, that is, with CTSC activity, by quantitatively analyzing the cell death, CTSC inhibitory activity of the test specimen in the cell was determined. CTSC inhibition assay was performed using a polystyrene-made white 384 well plate.
As the test specimen, a stock solution dissolved in DMSO was prepared so as to be 0.2 mmol/L, and in a case where a solution in which the stock solution was diluted 50-fold with a RPMI-1640 medium including 10% FBS was used as the maximum evaluation concentration (4000 nmol/L), a serially diluted solution was prepared by diluting the solution 3-fold with the medium. Thereafter, a 4-fold concentrated test specimen solution with the target final concentration was prepared.
U937 cells were cultured in a RPMI-1640 medium including 10% FBS, and diluted to prepare 90,000 cells/mL of cell suspension on the day of assay. 10 μL of the cell suspension was seeded per well. Next, 10 μL of the test specimen solution having a concentration 4 times the target final concentration was added thereto, and the mixture was allowed to stand for 30 minutes. Thereafter, 20 μL of a 300 μmol/L LLOMe solution dissolved in a RPMI-1640 medium including 10% FBS was added thereto, and the cells were cultured for 3 hours. After completion of the culture, 40 μL of CellTiter-Glo (registered trademark) reagent (Promega, G7570) was added to each well and mixed. After 15 minutes, 20 μL of the reaction solution in each well was transferred to a white 384 well plate, and a chemiluminescence intensity was measured with a plate reader. A 4-parameter regression analysis was performed with GraphPad Prism (manufactured by GraphPad Software) from a plot of the luminescence intensity and the sample concentration, and an IC50 value was calculated.
Results of test compounds of Formula (1) are shown in Table 2 as IC50 (nM) values for which 50% inhibition concentration is calculated based on CTSC inhibition (%). In the table, Ex indicates an example number.

Chain of CTSC in U937 cells (P53634 25-463): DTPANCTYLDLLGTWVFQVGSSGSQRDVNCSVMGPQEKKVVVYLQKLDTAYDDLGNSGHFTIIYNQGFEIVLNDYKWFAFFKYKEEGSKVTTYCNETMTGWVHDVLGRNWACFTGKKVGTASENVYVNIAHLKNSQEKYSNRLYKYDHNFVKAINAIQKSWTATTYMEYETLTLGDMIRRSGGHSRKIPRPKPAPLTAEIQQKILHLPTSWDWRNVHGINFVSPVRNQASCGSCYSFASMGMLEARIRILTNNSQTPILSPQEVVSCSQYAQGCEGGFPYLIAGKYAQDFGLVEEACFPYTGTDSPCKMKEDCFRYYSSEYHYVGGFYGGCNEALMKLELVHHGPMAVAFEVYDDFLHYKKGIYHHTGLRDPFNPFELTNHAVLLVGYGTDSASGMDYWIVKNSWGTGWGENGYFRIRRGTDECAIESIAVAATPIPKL
Chain of human recombinant CTSC (P53634 25-134): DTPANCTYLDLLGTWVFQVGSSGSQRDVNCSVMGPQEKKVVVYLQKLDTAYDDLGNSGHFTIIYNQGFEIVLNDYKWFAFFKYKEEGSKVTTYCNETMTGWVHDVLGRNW
Chain of human recombinant CTSC (P53634 231-394): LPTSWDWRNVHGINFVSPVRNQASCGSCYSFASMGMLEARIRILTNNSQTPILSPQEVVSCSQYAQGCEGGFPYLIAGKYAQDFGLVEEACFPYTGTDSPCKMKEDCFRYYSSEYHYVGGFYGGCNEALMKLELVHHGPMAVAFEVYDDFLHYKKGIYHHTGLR
Chain of human recombinant CTSC (P53634 395-463): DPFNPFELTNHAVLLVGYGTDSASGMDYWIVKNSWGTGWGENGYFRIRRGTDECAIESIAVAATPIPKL

Row | Structure (SMILES) | IC50 (human recombinant CTSC) [nM] | IC50 (CTSC in U937 cells) [nM]
1 | CC1(C)CN[C@H](C(=O)N2CCC(c3noc(C4CCC(F)(F)CC4)n3)(C3CC3)CC2)C[C@H]1O [Example 80, (4-Cyclopropyl-4-(5-(4,4-Difluorocyclohexyl)-1,2,4-oxadiazol-3-yl)piperidin-1-yl)((2S,4R)-4-hydroxy-5,5-dimethylpiperidin-2-yl)methanone] | 1.86 | 0.65
2 | O=C([C@@H]1C[C@@H](O)C2(CCC2)CN1)N1CCC(c2noc(C3CC(F)(F)C3)n2)(C(F)(F)F)CC1 [Example 3, (4-(5-(3,3-Difluorocyclobutyl)-1,2,4-oxadiazol-3-yl)-4-(trifluoromethyl)piperidin-1-yl)((7S,9R)-9-hydroxy-6-azaspiro[3.5]nonan-7-yl)methanone] | 1.52 | 0.49
3 | CC(C)C1(c2nc(C3CCC(F)(F)CC3)no2)CN(C(=O)[C@@H]2CC[C@@]3(CCO3)CN2)C1 [Example 21] | 2.51 | 4.78
4 | CC(C)C1(c2noc(C3CCC(F)(F)CC3)n2)CCN(C(=O)[C@@H]2C[C@@H](O)CCN2)CC1 [Example 34] | > 1000 | > 333
5 | O=C([C@@H]1C[C@@H](O)C2(CCC2)CN1)N1CCC(c2noc(C3CCC(F)(F)CC3)n2)(C2CC2)CC1 [Example 74] | 0.87 | 0.38
6 | CC(C)C1(c2noc(C3CCC(F)(F)CC3)n2)CCN(C(=O)[C@@H]2C[C@@H](O)C(C)(C)CN2)CC1 [Example 36] | 1.88 | 0.71
7 | Cc1cnn(C2(c3noc(C4CC(F)(F)C4)n3)CCN(C(=O)[C@@H]3C[C@@H](O)C4(CCC4)CN3)CC2)c1 [Example 71] | 3.73 | 5.63
8 | CC(C)C1(C(=O)NC2CCC(F)(F)CC2)CN(C(=O)[C@@H]2C[C@@H](O)C3(CCC3)CN2)C1 [Example 15] | 1.9 | 791
9 | O=C([C@@H]1C[C@@H](O)C2(CCC2)CN1)N1CCC(c2noc(C3CCC(F)(F)CC3)n2)(C(F)(F)F)CC1 [Example 31, (4-(5-(4,4-Difluorocyclohexyl)-1,2,4-oxadiazol-3-yl)-4-(trifluoromethyl)piperidin-1-yl)((7S,9R)-9-hydroxy-6-azaspiro[3.5]nonan-7-yl)methanone] | 0.31 | 0.22
10 | CC(C)C1(c2noc(C3CCC(F)(F)CC3)n2)CCN(C(=O)[C@@H]2C[C@H](O)CN2)CC1 [Example 25] | > 200 | > 200
11 | O=C([C@@H]1C[C@@H](O)C2(CCC2)CN1)N1CCC(c2nnn(C3CCC(F)(F)CC3)n2)(C(F)(F)F)CC1 [Example 66] | 1.05 | 0.46
12 | O=C([C@@H]1C[C@@H](O)C2(CCC2)CN1)N1CCC(c2cnc(N3CCC(F)(F)CC3)s2)CC1 [Example 92] | 2.76 | 3.62
13 | O=C([C@@H]1C[C@@H](O)C2(CCC2)CN1)N1CCC(c2nnn(Cc3ccccc3)n2)CC1 [Example 102] | 9.48 | 9.46
14 | O=C(c1nc(C2(C(F)(F)F)CCN(C(=O)[C@@H]3C[C@@H](O)C4(CCC4)CN3)CC2)no1)N1CCC(F)(F)CC1 [Example 48] | 3.07 | 4
15 | O=C([C@@H]1C[C@@H](O)C2(CCC2)CN1)N1CCC(c2nnn(-c3ccc(F)cc3)n2)CC1 [Example 89, (4-(2-(4-Fluorophenyl)-2H-tetrazol-5-yl)piperidin-1-yl)((7S,9R)-9-hydroxy-6-azaspiro[3.5]nonan-7-yl)methanone] | 1.45 | 0.6
16 | CN(C1(c2nc(C3CC(F)(F)C3)no2)CCN(C(=O)[C@@H]2C[C@@H](O)C3(CCC3)CN2)CC1)S(C)(=O)=O [Example 78] | 5.68 | 129

The next lines start with results.

Row | IC50 (human recombinant CTSC) [nM] | Structure (SMILES) | IC50 (CTSC in U937 cells) [nM]
17 | 151 | CC(C)C1(c2noc(C3CCC(F)(F)CC3)n2)CCN(C(=O)[C@@H]2C[C@H](F)CN2)CC1 [Example 24] | > 1000
18 | 5.09 | CC(C)C1(c2nc(C3CC(F)(F)C3)no2)CCN(C(=O)[C@@H]2CC[C@@]3(CCO3)CN2)CC1 [Example 9] | 11.4
19 | 2.92 | O=C([C@@H]1C[C@@H](O)C2(CCC2)CN1)N1CCC(c2noc(C3CC(F)(F)C3)n2)(c2nccs2)CC1 [Example 68] | 5.44
20 | 1.73 | O=C([C@@H]1C[C@@H](O)C2(CCC2)CN1)N1CCC(c2noc(C3CC(F)(F)C3)n2)(C2CC2)CC1 [Example 69] | 1.44
21 | 3.12 | CC(C)C1(c2nc(C3CC(F)(F)C3)no2)CN(C(=O)[C@@H]2C[C@@H](O)C3(CCC3)CN2)C1 [Example 18] | 2.33
22 | 1.08 | CC(C)C1(c2noc(C3CC(F)(F)C3)n2)CCN(C(=O)[C@@H]2C[C@@H](O)C3(CCC3)CN2)CC1 [Example 5] | 1.01
23 | 4.4 | O=C([C@@H]1C[C@@H](O)C2(CCC2)CN1)N1CCC(C(=O)N2CC[C@H](C(F)(F)F)C2)(C(F)(F)F)CC1 [Example 55] | 3.79
24 | 18.7 | CC1(C)CN(C(=O)c2nc(C3(C(F)(F)F)CCN(C(=O)[C@@H]4C[C@@H](O)C5(CCC5)CN4)CC3)no2)C1 [Example 53] | 11.3
25 | 2.36 | O=C([C@@H]1C[C@@H](O)C2(CCC2)CN1)N1CCC(c2nc(C3CC(F)(F)C3)no2)(C(F)(F)F)CC1 [Example 2, (4-(3-(3,3-Difluorocyclobutyl)-1,2,4-oxadiazol-5-yl)-4-(trifluoromethyl)piperidin-1-yl)((7S,9R)-9-hydroxy-6-azaspiro[3.5]nonan-7-yl)methanone] | 0.89
26 | 4.09 | O=C([C@@H]1C[C@@H](O)C2(CCC2)CN1)N1CCC(c2noc(C3CCCOC3)n2)(C(F)(F)F)CC1 (some centres unmarked) [Example 60] | 1.39
27 | 4.15 | O=C([C@@H]1C[C@@H](O)C2(CCC2)CN1)N1CCC(c2cn(-c3ccc(F)cc3)nn2)CC1 [Example 98] | 3.8
28 | 1.25 | Cc1ccc(C2(C(=O)NCC3CCC(F)(F)CC3)CCN(C(=O)[C@@H]3CC[C@@]4(CCO4)CN3)CC2)cc1 [Example 84] | 1.92
29 | 3.79 | CC(=O)N(C)C1(c2nc(C3CC(F)(F)C3)no2)CCN(C(=O)[C@@H]2C[C@@H](O)C3(CCC3)CN2)CC1 [Example 77] | > 333
30 | 2.17 | O=C([C@@H]1C[C@@H](O)C2(CCC2)CN1)N1CCC(c2ccsc2)(c2noc(C3CC(F)(F)C3)n2)CC1 [Example 79] | 0.75
31 | 2.48 | CC(C)C1(c2noc(C34CC(C3)C4)n2)CCN(C(=O)[C@@H]2C[C@@H](O)C3(CCC3)CN2)CC1 [Example 72] | 0.31
